Where two headings read alike, the source gives them in different places.

One data set has as its system wheat powdery mildew. Nature of the data set: Test on preventive effect against wheat powdery mildew. Format: in vivo, Wheat (cultivar: Norin-61-go). To be noted: Triticum aestivum, foliar spray before inoculation, examined 6 to 8 days after inoculation, read-out: controlling effects as compared with non-treated cases (area of sporogony). As for the experimental part:
Tests on Preventive Effect Against Wheat Powdery Mildew Wheat (cultivar: […] After the drug solution dried, the wheat was inoculated by spreading with conidiospore of fungi of powdery mildew, and the wheat was kept in a thermostatic chamber at 20° C. From 6 to 8 days after the inoculation, the area of sporogony was examined.

Data set [1] has as its system cucumber powdery mildew. The data set is described as follows: Test on preventive effect against cucumber powdery mildew. Format: in vivo, Cucumber (cultivar: Suyo). To be noted: Cucumis sativus, foliar spray before inoculation, examined 6 to 11 days after inoculation, read-out: controlling effects as compared with non-treated cases (area of sporogony). As for the experimental part: Test on Preventive Effect Against Cucumber Powdery Mildew Cucumber (cultivar: […] After the drug solution dried, the cucumber was sprayed and inoculated with a conidiospore suspension of fungi of powdery mildew, and the cucumber was kept in a thermostatic chamber at 20° C. From 6 to 11 days after the inoculation, the area of sporogony was examined.

A further data set relates to rice blast. The data set is described as follows: whole plant or invertebrate. To be noted: Pyricularia oryzae, foliar, read-out: controlling effects as compared with non-treated cases (number of lesions). Format: in vivo, Rice (cultivar: Nihonbare).
For data set [2], the system named is cucumber powdery mildew. Nature of the data set: Test on rainfastness of effect against cucumber powdery mildew. The conditions noted are these: Cucumis sativus, topical, 500 gai/ha. Format: in vivo, Cucumber (cultivar: Suyo). As for the experimental part: Cucumber (cultivar: […] A day after the treatment, 10 mm/hr of artificial rainfall was applied for 1 hour. Together with seedlings not subjected to rainfall treatment (preventive), the cucumber was sprayed and inoculated with a conidiospore suspension of fungi of powdery mildew, and the cucumber was kept in a thermostatic chamber at 20° C. From 6 to 11 days after the inoculation, the number of lesions was examined, and the controlling rate was calculated by comparison with the non-treated cases. The results are shown in Table 5.

Where [3] appears, read: 10 mm/hr artificial rainfall for 1 hour a day after treatment, read-out: Controlling rate of cucumber powdery mildew (%) Rainfall.
[4] abbreviates: no rainfall treatment (preventive), read-out: Controlling rate of cucumber powdery mildew (%) Preventive.

`COc1cc(C)c(C(=O)c2c(OC)ncc(Cl)c2OC)c(OC)c1OC` [1-11, 3-(2,3,4-trimethoxy-6-methylbenzoyl)-5-chloro-2,4-dimethoxypyridine] returned a melting point of 93 to 94 °C. Besides, the pest or weed control at 125 ppm in the data set on wheat powdery mildew is at least 90%. In addition, in the data set on cucumber powdery mildew [1], the pest or weed control at 125 ppm is at least 90%.

`COc1cc(C)c(C(=O)c2c(Cl)ncc(C)c2Cl)c(OC)c1OC` [1-16, 3-(2,3,4-trimethoxy-6-methylbenzoyl)-2,4-dichloro-5-methylpyridine] yielded a melting point of 78 to 80 °C. Besides, the pest or weed control at 125 ppm in the data set on wheat powdery mildew is at least 90%. For the same compound, the pest or weed control at 125 ppm in the data set with cucumber powdery mildew [1] is at least 90%. For the same compound, the pest or weed control at 500 ppm with rice blast was at least 90%.

Regarding `COc1cc(C)c(C(=O)c2c(OC)ncc(C)c2C)c(OC)c1OC` [1-20, 3-(2,3,4-trimethoxy-6-methylbenzoyl)-2-methoxy-4,5-dimethylpyridine], the melting point was 84 to 86 °C. Also, the pest or weed control at 125 ppm with wheat powdery mildew is at least 90%.

Turning to `COc1cc(C)c(C(=O)c2c(OC)ncc(Cl)c2Br)c(OC)c1OC` [Compound No. 1-1, 3-(2,3,4-trimethoxy-6-methylbenzoyl)-4-bromo-5-chloro-2-methoxypyridine], the melting point was 92 to 94 °C. In the data set on cucumber powdery mildew [2] (setting [3]), the pest or weed control at 500 g/ha was 100%. Besides, the pest or weed control at 500 g/ha in the data set with cucumber powdery mildew [2] (setting [4]) is 100%. Further, in the data set with wheat powdery mildew, the pest or weed control at 125 ppm is at least 90%. The pest or weed control at 125 ppm in the data set on cucumber powdery mildew [1] is at least 90%. The pest or weed control at 500 ppm in the data set with rice blast is at least 90%.

The compound `COc1cc(C)c(C(=O)c2c(OC)ncc(Cl)c2Cl)c(OC)c1OC` [Compound No. 1-15, 3-(2,3,4-trimethoxy-6-methylbenzoyl)-4,5-dichloro-2-methoxypyridine] yielded a melting point of 84 to 86 °C. For the same compound, in the data set on cucumber powdery mildew [2] (setting [3]), the pest or weed control at 500 g/ha came out at 100%. Further, the pest or weed control at 500 g/ha in the data set on cucumber powdery mildew [2] (setting [4]) turned out to be 100%. For the same compound, in the data set with wheat powdery mildew, the pest or weed control at 125 ppm was at least 90%. Also, the pest or weed control at 125 ppm in the data set on cucumber powdery mildew [1] was at least 90%. In the data set on rice blast, the pest or weed control at 500 ppm is at least 90%.

A word on the melting point: it is the temperature, or range, at which the solid turns liquid.
